Test [1] relates to Staphylococcus aureus L165. Briefly: MIC by microbroth dilution. Format: cell-based. The note with it: 0,01% BSA, inoculum 10^4 CFU/ml, read after 18-24 h, Iso-Sensitest broth. The method, then:
(§1) The minimal inhibitory concentration (MIC) has been determined by microbroth dilution methodology, in the presence of 0,01% (w/v) of bovine serum albumin (BSA). BSA is added to the diluent to avoid possible adherence of the compounds of the invention to the plastic surface of the microtiter wells, as disclosed also by B. Goldstein et al., Antimicrobial Agents and Chemotherapy, 37 (1993), 741-745.
(§2) Inocula were 10^4 CFU/ml, except for Propionibacterium acnes and Bacteroides fragilis (10^5 CFU/ml) MICs were read after 18-24 h, except for Haemophilus influenzae, P. acnes, B. fragilis (48 h).
(§3) All microorganisms were incubated at 37° C.; H. influenzae in a 5% CO2 atmosphere, anaerobes in a N2 --CO2 --H2 (80:10:10) mixture; other organisms in air.
(§4) The growth media are: Oxoid Iso-Sensitest broth for staphylococci and Enterococcus faecalis); Difco Todd Hewitt broth for streptococci; Difco brain heart infusion broth+1% Difco Supplement C. for H. influenzae; Difco Wilkins-Chalgren broth for anaerobes.
Background: Dilution methods test growth across graded concentrations, often in twofold steps.

The test system of test [2] is Streptococcus pyogenes L49. The test can be described thus: MIC by microbroth dilution. The note with it: 0,01% BSA, 10^4 CFU/ml, 18-24 h, Todd Hewitt broth. Format: cell-based. The method, then:
as §1, §2, §3, §4

In test [3] the test system is Bacteroides fragilis ATCC 25285 L1011. The test can be described thus: MIC by microbroth dilution. It counts as cell-based. To be noted: 0,01% BSA, 10^5 CFU/ml, 48 h, anaerobic, Wilkins-Chalgren broth. The method, then:
as §1, §2, §3, §4

For test [4], the system named is Enterococcus faecalis ATCC 7080 L149. Briefly: MIC by microbroth dilution. It counts as cell-based. The note with it: Enterococc. faecalis ATCC 7080 L149; 0,01% BSA; 10^4 CFU/ml; 18-24 h; Iso-Sensitest broth. The method, then:
as §1, §2, §3, §4

Test [5] deals with Haemoph. influenzae ATCC 19418 L970. The test can be described thus: MIC by microbroth dilution. Format: cell-based, Haemophilus influenzae. The note with it: 0,01% BSA, 10^4 CFU/ml, 48 h, 5% CO2, brain heart infusion broth+1% Supplement C. The method, then: as §1, §2, §3, §4
Another test deals with Staph. haemolyticus L602. Briefly: MIC by microbroth dilution. Format: cell-based, Staphylococcus haemolyticus. The note with it: 0,01% BSA, 10^4 CFU/ml, 18-24 h, Iso-Sensitest broth. The method, then:
as §1, §2, §3, §4

In the next test the test system is Strept. pneumoniae L44. Briefly: MIC by microbroth dilution. It counts as cell-based, Streptococcus pneumoniae. To be noted: 0,01% BSA, 10^4 CFU/ml, 18-24 h, Todd Hewitt broth. The method, then: as §1, §2, §3, §4
The subject of test [6] is Propionibact. acnes ATCC 6919 L1014. The test can be described thus: MIC by microbroth dilution. To be noted: 0,01% BSA, 10^5 CFU/ml, 48 h, anaerobic, Wilkins-Chalgren broth. It counts as cell-based, Propionibacterium acnes. The method, then: as §1, §2, §3, §4
Test [7] concerns Staph. epidermidis ATCC 12228 L147. Briefly: MIC by microbroth dilution. It counts as cell-based, Staphylococcus epidermidis. The note with it: 0,01% BSA, 10^4 CFU/ml, 18-24 h, Iso-Sensitest broth. The method, then: as §1, §2, §3, §4
The test system of another test is Strept. sanguis L1721. Briefly: MIC by microbroth dilution. Format: cell-based, Streptococcus sanguis. The note with it: 0,01% BSA, 10^4 CFU/ml, 18-24 h, Todd Hewitt broth. The method, then:
as §1, §2, §3, §4

The next test relates to Strept. agalactiae L310. Briefly: MIC by microbroth dilution. It counts as cell-based, Streptococcus agalactiae. To be noted: 0,01% BSA, 10^4 CFU/ml, 18-24 h, Todd Hewitt broth. The method, then:
as §1, §2, §3, §4

Another test has as its system gram positive bacteria. To be noted: from K. Shimanaka et al.; cited from earlier work.

The structures appear in SMILES notation.

Turning to `CNC(=O)CC1NC(=O)c2csc(n2)-c2ccc(-c3nc(C4=NC(C(=O)N(C)CCN5CCN(CCO)CC5)CO4)cs3)nc2-c2csc(n2)-c2csc(n2)C(C(O)c2ccccc2)NC(=O)CNC(=O)c2nc(sc2COC)C(C(C)C)NC(=O)c2nc1sc2C` (mixture of isomers) [Compound 19], the “MIC of the compounds” value in [1] is 0.06 µg/mL; in test [2], 1 µg/mL; in [3], 4 µg/mL; in test [4] it was 0.016 µg/mL; in test [5] it was 16 µg/mL; with Staph. haemolyticus L602, 0.13 µg/mL. The “MIC of the compounds” value in the test with Strept. pneumoniae L44 turned out to be 0.13 µg/mL; in test [6], 0.016 µg/mL; in [7], 0.13 µg/mL; with Strept. sanguis L1721 it was 0.13 µg/mL; with Strept. agalactiae L310, 2 µg/mL.

`CNC(=O)CC1NC(=O)c2csc(n2)-c2ccc(-c3nc(C4=NC(C(=O)NC5CNC(C(N)=O)C5)CO4)cs3)nc2-c2csc(n2)-c2csc(n2)C(C(O)c2ccccc2)NC(=O)CNC(=O)c2nc(sc2COC)C(C(C)C)NC(=O)c2nc1sc2C.O=C(O)C(F)(F)F` (mixture of isomers) [Compound 13]: the “MIC of the compounds” value in test [1] was 0.13 µg/mL; in test [2], 4 µg/mL; in test [3] it was > 128 µg/mL; in test [4] it was 0.06 µg/mL; in test [5], 128 µg/mL; with Staph. haemolyticus L602, 0.5 µg/mL. The “MIC of the compounds” value was found to be 0.5 µg/mL in the test with Strept. pneumoniae L44, 0.13 µg/mL in [6] and 0.5 µg/mL in test [7].

With `CNC(=O)CC1NC(=O)c2csc(n2)-c2ccc(-c3nc(C4=NC(C(=O)N5CCCC5C(N)=O)CO4)cs3)nc2-c2csc(n2)-c2csc(n2)C(C(C)C)NC(=O)CNC(=O)c2csc(n2)C(C(C)C)NC(=O)c2nc1sc2C` (centres unmarked) [amythiamicin factor A], the antimicrobial activity entry with gram positive bacteria is reported as “shows antimicrobial activity against gram positive bacteria”.

On to `CNC(=O)CC1NC(=O)c2csc(n2)-c2ccc(-c3nc(C4=NC(C(=O)N5CCC(N(C)C)CC5)CO4)cs3)nc2-c2csc(n2)-c2csc(n2)C(C(O)c2ccccc2)NC(=O)CNC(=O)c2nc(sc2COC)C(C(C)C)NC(=O)c2nc1sc2C` (centres unmarked) [Compound 10s], for which the “MIC of the compounds” value is 0.03 µg/mL in test [1]; 1 µg/mL in [2]; 8 µg/mL in test [3]; 0.03 µg/mL in test [4]; 8 µg/mL in test [5]; 0.13 µg/mL in the test with Staph. haemolyticus L602. The “MIC of the compounds” value was 0.5 µg/mL in the test with Strept. pneumoniae L44; 0.016 µg/mL in [6]; 0.06 µg/mL in test [7]; 0.5 µg/mL in the test on Strept. sanguis L1721; 2 µg/mL in the test on Strept. agalactiae L310.

For `CNC(=O)CC1NC(=O)c2csc(n2)-c2ccc(-c3nc(C4=NC(C(=O)N(C)CCN(C)C)CO4)cs3)nc2-c2csc(n2)-c2csc(n2)C(C(O)c2ccccc2)NC(=O)CNC(=O)c2nc(sc2COC)C(C(C)C)NC(=O)c2nc1sc2C` (mixture of isomers) [Compound 4], the “MIC of the compounds” value in test [1] turned out to be 0.06 µg/mL; in [2] it was 0.5 µg/mL; in test [3], 8 µg/mL; in [5] it was 4 µg/mL; in the test with Staph. haemolyticus L602, 0.06 µg/mL; with Strept. pneumoniae L44, 0.13 µg/mL. In addition, the “MIC of the compounds” value in test [6] amounted to 0.016 µg/mL; in test [7], 0.06 µg/mL; in the test on Strept. sanguis L1721, 0.13 µg/mL; with Strept. agalactiae L310 it was 0.5 µg/mL.

On to `CNC(=O)CC1NC(=O)c2csc(n2)-c2ccc(-c3nc(C4=NC(C(=O)N5CCN(C)CC5)CO4)cs3)nc2-c2csc(n2)-c2csc(n2)C(C(O)c2ccccc2)NC(=O)CNC(=O)c2nc(sc2COC)C(C(C)C)NC(=O)c2nc1sc2C` (mixture of isomers) [Compound 6], for which the “MIC of the compounds” value turned out to be 0.06 µg/mL in test [1]; 4 µg/mL in test [2]; 128 µg/mL in [3]; 0.25 µg/mL with Strept. pneumoniae L44; 0.25 µg/mL in the test on Strept. sanguis L1721; 4 µg/mL with Strept. agalactiae L310.

Regarding `CNC(=O)CC1NC(=O)c2csc(n2)-c2ccc(-c3nc(C4=NC(C(=O)N(C)CCN(C)C)CO4)cs3)nc2-c2csc(n2)-c2csc(n2)C(C(O)c2ccccc2)NC(=O)CNC(=O)c2nc(sc2COC)C(C(C)C)NC(=O)c2nc1sc2C` (centres unmarked) [Compound 4s], the “MIC of the compounds” value in test [1] was found to be 0.06 µg/mL; in [2], 1 µg/mL; in test [3], 8 µg/mL; in test [4] it was 0.016 µg/mL; in test [5] it was 64 µg/mL; with Staph. haemolyticus L602, 0.06 µg/mL. For the same compound, the “MIC of the compounds” value stood at 0.25 µg/mL with Strept. pneumoniae L44; 0.03 µg/mL in [6]; 0.06 µg/mL in [7]; 0.13 µg/mL in the test on Strept. sanguis L1721; 0.5 µg/mL with Strept. agalactiae L310.

Regarding `CNC(=O)CC1NC(=O)c2csc(n2)-c2ccc(-c3nc(C4=NC(C(=O)N(C)CCN5CCN(CCO)CC5)CO4)cs3)nc2-c2csc(n2)-c2csc(n2)C(C(O)c2ccccc2)NC(=O)CNC(=O)c2nc(sc2COC)C(C(C)C)NC(=O)c2nc1sc2C` (centres unmarked) [Compound 19s], the “MIC of the compounds” value stood at 0.06 µg/mL in [1]; 1 µg/mL in test [2]; 8 µg/mL in test [3]; 0.016 µg/mL in [4]; 8 µg/mL in [5]; 0.13 µg/mL in the test on Staph. haemolyticus L602. The “MIC of the compounds” value came to 0.13 µg/mL in the test with Strept. pneumoniae L44, 0.016 µg/mL in test [6] and 0.06 µg/mL in test [7].
